Data from patent publication US6565872B2, “Polymeric system for drug delivery and solute separation” (priority 1999, dated 2003).

Assay: Permeation of solutes through the composite membrane, side-by-side diffusion cell
Type: physicochemical
Settings: for P(45° C.)/P(20° C.) in 0.0001M KCl: permeability ratio across composite membrane, 45° C. vs 20° C.
Protocol: Permeation of solutes of various molecular sizes through the membrane was determined using a side-by-side diffusion cell. The solution in the receptor cell was pumped to a UV cell with a peristaltic pump. The amount of solute permeated was assayed by a diode array spectrophotometer (HP 8452A). The pH of the medium was adjusted either by addition of sodium hydroxide and hydrochloric acid.

ratio of the permeability at 40° C. to that at 25° C. (composite membrane, DDI water (FIG. 5))	P(45° C.)/P(20° C.) in 0.0001M KCl	permeability at 45° C. relative to that at 20° C. (composite membrane, in the presence of CaCl2 (3.33×10^−2 mM, FIG. 7), calculated from slopes)	permeation across the membrane into water at 25° C. (water, 25° C. compared with 40° C. (FIG. 6))	Compound	penetration through the membrane (at the studied temperatures)
about 2.6 times	2.20			CC(=O)Nc1ccc(O)cc1 [Acetaminophen]	
	11.0	about 11 fold	almost negligible permeation	Vitamin B12	

Compound	ratio of the permeability at 40° C. to that at 25° C. (composite membrane, DDI water (FIG. 5))	P(45° C.)/P(20° C.) in 0.0001M KCl	permeability at 45° C. relative to that at 20° C. (composite membrane, in the presence of CaCl2 (3.33×10^−2 mM, FIG. 7), calculated from slopes)	permeation across the membrane into water at 25° C. (water, 25° C. compared with 40° C. (FIG. 6))	penetration through the membrane (at the studied temperatures)
Chymotrypsin		No permeation at both			could not penetrate through the membrane
